# Measured values from paper PMC10541190 (The Journal of Clinical Investigation, 2023).
# Several values for one entry are separate records, joined by “and”; a condition that tells them apart may be missing. Equal values may be shown once. Read-outs that look alike come from different tables or passages of the source. [ ]: non-standard residue; d: D form. Nle = CCCC[C@H](N)C(=O)O
# How the values were obtained:
# [1] = in vitro; details: human, Huh7 cell viability (%)
# [2] = in vitro; details: African green monkey
# [3] = tested on: Vero cells
# [4] = tested on: SARS-CoV-2 (USA-WA1/2020); experiment: microbe, parasite or virus in culture; format: cell-based
# [5] = in vitro; details: human, U-87 MG cell viability (%)
Compound,Cell viability (%) ([3]; 0.625 μM),Cell viability (%) ([3]; 1.25 μM),Cell viability (%) ([3]; 5 μM),Cell viability (%) ([3]; 20 μM),SARS-CoV-2 infection (%) ([4]; 0.625 μM),SARS-CoV-2 infection (%) ([4]; 1.25 μM),SARS-CoV-2 infection (%) ([4]; 5 μM),SARS-CoV-2 infection (%) ([4]; 20 μM),"viability at 0.625 µM ([2]; Cell viability (%), 0.625 μM)","viability at 1.25 µM ([2]; Cell viability (%), 1.25 μM)","viability at 5 µM ([2]; Cell viability (%), 5 μM)","viability at 20 µM ([2]; Cell viability (%), 20 μM)",viability at 0.37 µM [5],viability at 3.33 µM [5],viability at 10 µM [5],viability at […] [5],also measured
O=C(CCCN1CCC2(CC1)C(=O)NCN2c1ccccc1)c1ccc(F)cc1 [Spiperone],–,–,–,–,–,–,–,–,–,–,–,–,–,–,–,–,viability at 0.37 µM [1]: 99.5%; viability at 3.33 µM [1]: 79.2%; viability at 10 µM [1]: 75.7%; viability at […] [1]: 97% and 99.9%; CC50 [2]: > 20 µM
CN(C)C(=O)C(CCN1CCC(O)(c2ccc(Cl)cc2)CC1)(c1ccccc1)c1ccccc1 [Loperamide],–,–,–,–,–,–,–,–,–,–,–,–,–,–,–,–,viability at 0.123 µM [1]: 92.4%; viability at 0.37 µM [1]: 91.8%; viability at 3.333 µM [1]: 88.9%; viability at 10 µM [1]: 68.3%; CC50 [2]: > 20 µM
CC(C)(C)c1cc(C=C(C#N)C#N)cc(C(C)(C)C)c1O [Tyrphos-tin A9],112.22% and 113.82%,118.35% and 120.78%,96.34%,97.68% and 97.70%,101.12% and 121.35% and 124.72%,131.46% and 128.09% and 114.61%,107.87% and 117.98% and 101.12%,9.10% and 6.07% and 8.43%,107%,111%,96.3%,91.5%,–,–,–,–,–
O[C@H]1[C@H]2c3cc4c(cc3CN3CCC(=C[C@@H]1O)[C@H]23)OCO4 [Lyco-rine],98.69%,103.60% and 104.02%,84.99% and 87.96%,88.99% and 91.05%,7.08% and 5.06% and 8.76%,0.34% and 0.40% and 0.24%,0.00337%,0.00337%,93.8%,97.9%,83%,83%,–,–,–,–,–
CNc1ccc2oc(C[C@H]3O[C@@]4(CC[C@H]3C)O[C@H]([C@H](C)C(=O)c3ccc[nH]3)[C@H](C)C[C@H]4C)nc2c1C(=O)O [Calci-mycin],91.36% and 94.20%,98.44% and 96.45%,93.68% and 94.54%,81.29%,17.53% and 16.18% and 16.52%,0.00337%,0.00337%,0.00337%,89.2%,98.6%,93.5%,86.9%,103%,66.8%,58.2%,82.3% and 103%,–
Aurothioglucose,–,–,–,–,–,–,–,–,–,–,–,–,–,–,–,–,CC50 [3]: > 20 µM
O=C1NCN(c2ccccc2)C12CCN(CCCC(c1ccc(F)cc1)c1ccc(F)cc1)CC2 [Fluspiri-lene],103.85% and 102.73%,105.07% and 105.49%,94.12% and 91.52%,83.60% and 85.38%,121.35% and 117.98% and 101.12%,111.24% and 114.61% and 104.49%,114.61% and 94.38% and 111.24%,3.37% and 2.70% and 4.04%,105%,108%,94%,85.1%,97%,102%,93.8%,97.8% and 97.9%,–
CN(C)C(=O)C(CCN1CCC(O)(c2ccc(Cl)cc2)CC1)(c1ccccc1)c1ccccc1 [Lopera-mide],–,–,–,–,–,–,–,–,–,–,–,–,98.7%,101%,97.5%,100% and 98.5%,"Cell viability (%) ([3]; African green monkey, 20 µM): 99.64%; viability at 0.625 µM ([2]; Cell viability (%)): 115%; viability at 1.25 µM ([2]; Cell viability (%)): 121%; viability at 5 µM ([2]; Cell viability (%)): 105%; viability at 20 µM ([2]; Cell viability (%)): 98.5%"
Ac-Leu-Leu-[Nle]-aldehyde,–,–,–,–,–,–,–,2.73% and 1.37% and 0.00%,–,–,–,–,–,–,–,–,CC50 [3]: > 20 µM; Cell viability (%) ([3]; 0.25 μM): 91.85%; Cell viability (%) ([3]; 0.74 μM): 90.53%; Cell viability (%) ([3]; 6.67 μM): 98.46%
CC(C)(C)c1cc(/C=C(\C#N)C(N)=S)cc(C(C)(C)C)c1O [Tyrphos-tin AG 879],83.52% and 84.00%,88.30% and 88.47%,78.46% and 79.21%,71.26% and 69.85%,47.19% and 30.34% and 33.71%,7.75% and 5.73% and 5.06%,0.40% and 0.44% and 0.27%,0.00337%,85.5%,87.2%,78.7%,71%,–,–,–,–,viability at 0.25 µM [5]: 96.7%; viability at 0.74 µM [5]: 85%; viability at 2.22 µM [5]: 85.2%; viability at 6.67 µM [5]: 78.3%; viability at 20 µM [5]: 70.1%
CC[C@@]1([C@@H]2O[C@@H]([C@H]3O[C@@](O)(CO)[C@H](C)C[C@@H]3C)C[C@@H]2C)CC[C@H]([C@]2(C)CC[C@]3(C[C@H](O)[C@@H](C)[C@@H]([C@@H](C)[C@@H](OC)[C@H](C)C(=O)O)O3)O2)O1 [Monen-sin],106.13% and 103.45%,110.73% and 112.93%,95.75% and 98.96%,97.54% and 96.71%,74.16% and 84.27% and 91.01%,33.71% and 60.67% and 53.93%,0.0742% and 0.09% and 0.07%,0.0337%,103%,113%,100%,98.8%,82%,78.7%,79.7%,79.2% and 83.3%,–
O=C(CCCN1CCC2(CC1)C(=O)NCN2c1ccccc1)c1ccc(F)cc1 [Spipe-rone],94.16% and 92.89%,101.11%,96.86% and 95.76%,101.04%,124.72% and 114.61% and 131.46%,107.87% and 117.98% and 101.12%,15.17% and 17.19% and 12.81%,0.47% and 0.20% and 0.30%,91.9%,99.9%,94.3%,97.4%,99.2%,101%,97%,99.5% and 99.9%,–
Penitrem A,–,–,–,–,91.01% and 104.49% and 97.75%,111.24% and 101.12% and 94.38%,117.98% and 128.09% and 111.24%,6.40% and 7.08% and 9.44%,–,–,–,–,–,–,–,–,–
COc1ccc2cc1Oc1ccc(cc1)C[C@H]1c3cc(c(OC)cc3CCN1C)Oc1c(OC)c(OC)cc3c1[C@H](C2)N(C)CC3 [Tetran-drine],99.78%,105.40% and 105.65%,86.02% and 86.44%,48.98% and 79.18% and 56.10%,107.87% and 117.98% and 101.12%,53.93% and 104.49% and 87.64%,0.61% and 0.84% and 0.88%,0.00337%,94.4%,101%,83.6%,–,101%,101%,98.9%,105% and 97.8%,–
[N-]=[N+]=CC(=O)OC[C@H](N)C(=O)O [Aza-serine],–,–,–,91.48% and 89.75%,–,–,–,0.00%,–,–,–,87.1%,–,94.5%,84%,–,"Cell viability (%) ([3]; 0.2469 μM): 103.32%; Cell viability (%) ([3]; 2.2222 μM): 96.19% and 95.62%; Cell viability (%) ([3]; 6.6667 μM): 94.50% and 92.95%; SARS-CoV-2 infection (%) ([4]; 0.2469 μM): 107.69% and 86.64%; SARS-CoV-2 infection (%) ([4]; 2.2222 μM): 7.01% and 8.09%; SARS-CoV-2 infection (%) ([4]; 6.6667 μM): 2.70% and 1.62%; viability at 0.2469 µM ([2]; Cell viability (%), 0.2469 μM): 87.9%; viability at 2.2222 µM ([2]; Cell viability (%), 2.2222 μM): 89.7%; viability at 6.6667 µM ([2]; Cell viability (%), 6.6667 μM): 92.2%"
CO[C@@H]1[C@@H](O[C@@H]2O[C@H](C)[C@@H](O[C@H]3C[C@@](C)(O)[C@@H](OC(=O)CC(C)C)[C@H](C)O3)[C@H](N(C)C)[C@H]2O)[C@@H](CC=O)C[C@@H](C)[C@@H](O)/C=C/C=C/C[C@@H](C)OC(=O)C[C@H]1OC(C)=O [Josa-mycin],–,–,–,–,–,–,–,8.09% and 10.77%,–,–,–,–,90.4%,91.6%,100%,91.6% and 95.3%,"Cell viability (%) ([3]; 2.22 μM): 93.52% and 91.16%; Cell viability (%) ([3]; 6.67 μM): 93.20% and 88.03%; SARS-CoV-2 infection (%) [4]: 107.69% and 101.94%; SARS-CoV-2 infection (%) ([4]; 2.22 μM): 48.50% and 53.93%; SARS-CoV-2 infection (%) ([4]; 6.67 μM): 16.19% and 21.54%; viability at 0.247 µM ([2]; Cell viability (%)): 102%; viability at 20 µM ([2]; Cell viability (%)): 89.7%; viability at 2.22 µM ([2]; Cell viability (%), 2.22 μM): 96.9%; viability at 6.67 µM ([2]; Cell viability (%), 6.67 μM): 93%"
CC(C)(C)NCC(O)c1ccc(O)c(CO)c1 (stereo not shown) [Salbuta-mol],–,–,–,–,85.71% and 108.79% and 115.38%,128.57% and 98.90%,92.31% and 118.68% and 115.38%,105.49% and 89.01%,–,–,–,–,–,–,–,–,–
CO[C@@H]1[C@@H](O[C@@H]2O[C@H](C)[C@@H](O[C@H]3C[C@@](C)(O)[C@@H](OC(=O)CC(C)C)[C@H](C)O3)[C@H](N(C)C)[C@H]2O)[C@@H](CC=O)C[C@@H](C)[C@@H](O)/C=C/C=C/C[C@@H](C)OC(=O)C[C@H]1OC(C)=O [Josamycin],–,–,–,–,–,–,–,–,–,–,–,–,–,–,–,–,"viability at 0.37 µM [1]: 94.1%; viability at 3.33 µM [1]: 97.2%; viability at 10 µM [1]: 98.2%; viability at […] [1]: 96.6% and 93.2%; EC50 ([4]; Severe acute respiratory syndrome coronavirus 2, Vero, 24 h, read-out: SARS-CoV-2 EC50): 2.4 µM; CC50 [2]: > 20 µM"
